# Read-outs that look alike come from different tables or passages of the source. Where a SMILES comes first, the peptide text is derived from it. Bridges are numbered along the chain shown (N, C = ends). [ ]: non-standard residue; d: D form. The star is where a group is joined. S(2-cyclohexylethyl) = C1CCC(CCS*)CC1; S(3-Cl-benzyl) = Clc1cccc(CS*)c1; S(3-Methylbutyl) = CC(C)CCS*; dDab = NCC[C@@H](N)C(=O)O; dDap = NC[C@@H](N)C(=O)O; Dab = NCC[C@H](N)C(=O)O; Dap = NC[C@H](N)C(=O)O
# Experiments:
# Assay type in all cases: cell-based
# A. Baumanni (ATCC 19606) = tested on: A. Baumanni (ATCC 19606)
# Procedure: (§1) Compounds were prepared according to scheme 2, 3, 4, 6, 7, or 8 above, preparing different sets of compounds with different substitution patterns. All polymyxin analogues prepared were tested for their anti-bacterial activity on relevant Gram-negative strains (Table B). Polymyxin B and PMBN were taken along as references. In addition, the toxicity on renal Proximal Tubular Epithelial Cells (PTECs) was evaluated.
# (§2) 3rd Generation compounds were also subjected to testing for their anti-bacterial activity on relevant Gram-negative strains (Table C). Polymyxin B and PMBN were taken along as references. In addition, the toxicity on renal Proximal Tubular Epithelial Cells (PTECs) was evaluated, see Table C.
# E. Coli (ATCC 25922) = tested on: E. Coli (ATCC 25922)
# Procedure: as §1, §2
# [1] = tested on: K. Pneumoniae (ATCC 13883)
# Procedure: as §1, §2
# [2] = tested on: P. Aeruginosa (ATCC 27853)
# Procedure: as §1, §2
# [3] = tested on: renal Proximal Tubular Epithelial Cells (PTECs); experiment: Toxicity on renal Proximal Tubular Epithelial Cells
# Procedure: as §1, §2
Compound,MIC A. Baumanni (ATCC 19606) (A. Baumanni (ATCC 19606); ATCC 19606) [µg/mL],MIC E. Coli (ATCC 25922) (E. Coli (ATCC 25922); ATCC 25922) [µg/mL],MIC K. Pneumoniae (ATCC 13883) ([1]; ATCC 13883) [µg/mL],MIC P. Aeruginosa (ATCC 27853) ([2]; ATCC 27853) [µg/mL],MIC A. Baumanni (ATCC 19606) (A. Baumanni (ATCC 19606); strain ATCC 19606) [µg/mL],MIC E. Coli (ATCC 25922) (E. Coli (ATCC 25922); strain ATCC 25922) [µg/mL],MIC K. Pneumoniae (ATCC 13883) ([1]; strain ATCC 13883) [µg/mL],MIC P. Aeruginosa (ATCC 27853) ([2]; strain ATCC 27853) [µg/mL],PTEC Toxicity (relative to polymyxin B) [3],"PTEC Toxicity (relative to polymyxin B) ([3]; relative value, polymyxin B = 1)"
CC(C)C[C@@H]1NC(=O)[C@@H](Cc2ccccc2)NC(=O)[C@H](CCN)NC(=O)[C@@H](NC(=O)[C@@H](CN)NC(=O)[C@@H](NC(=O)[C@H](N)CSSCCC2CCCCC2)[C@@H](C)O)CCNC(=O)[C@H]([C@@H](C)O)NC(=O)[C@H](CCN)NC(=O)[C@H](CCN)NC1=O (H-[dC](S(2-cyclohexylethyl))T[dDap][Dab][Dab][dF]L[Dab][Dab]T; lactam 4-C),0.5,2,1,2,,,,,5.4,
CC(C)C[C@@H]1NC(=O)[C@@H](Cc2ccccc2)NC(=O)[C@H](CCN)NC(=O)[C@@H](NC(=O)[C@@H](CO)NC(=O)[C@@H](NC(=O)[C@H](N)CSSCCC2CCCCC2)[C@@H](C)O)CCNC(=O)[C@H]([C@@H](C)O)NC(=O)[C@H](CCN)NC(=O)[C@H](CCN)NC1=O (H-[dC](S(2-cyclohexylethyl))T[dS][Dab][Dab][dF]L[Dab][Dab]T; lactam 4-C),0.25,2,1,4,,,,,3.3,
CC(C)C[C@@H]1NC(=O)[C@@H](Cc2ccccc2)NC(=O)[C@H](CCN)NC(=O)[C@@H](NC(=O)[C@@H](CO)NC(=O)[C@@H](NC(=O)[C@H](N)CSSCc2cccc(Cl)c2)[C@@H](C)O)CCNC(=O)[C@H]([C@@H](C)O)NC(=O)[C@H](CCN)NC(=O)[C@H](CCN)NC1=O (H-[dC](S(3-Cl-benzyl))T[dS][Dab][Dab][dF]L[Dab][Dab]T; lactam 4-C),0.5,2,1,4,,,,,6.7,
CC(C)CCSSC[C@@H](N)C(=O)N[C@H](C(=O)N[C@@H](CN)C(=O)N[C@H]1CCNC(=O)[C@H]([C@@H](C)O)NC(=O)[C@H](CCN)NC(=O)[C@H](CCN)NC(=O)[C@H](CC(C)C)NC(=O)[C@@H](Cc2ccccc2)NC(=O)[C@H](CCN)NC1=O)[C@@H](C)O (H-[dC](S(3-Methylbutyl))T[Dap][Dab][Dab][dF]L[Dab][Dab]T; lactam 4-C),0.25,1,0.25,1,,,,,20.1,
CC(C)CCSSC[C@@H](N)C(=O)N[C@H](C(=O)N[C@H](CCN)C(=O)N[C@H]1CCNC(=O)[C@H]([C@@H](C)O)NC(=O)[C@H](CCN)NC(=O)[C@H](CCN)NC(=O)[C@H](CC(C)C)NC(=O)[C@@H](Cc2ccccc2)NC(=O)[C@H](CCN)NC1=O)[C@@H](C)O (H-[dC](S(3-Methylbutyl))T[dDab][Dab][Dab][dF]L[Dab][Dab]T; lactam 4-C),0.25,2,0.5,1,,,,,7.1,
CC(C)CCSSC[C@@H](N)C(=O)N[C@H](C(=O)N[C@H](CO)C(=O)N[C@H]1CCNC(=O)[C@H]([C@@H](C)O)NC(=O)[C@H](CCN)NC(=O)[C@H](CCN)NC(=O)[C@H](CC(C)C)NC(=O)[C@@H](Cc2ccccc2)NC(=O)[C@H](CCN)NC1=O)[C@@H](C)O (H-[dC](S(3-Methylbutyl))T[dS][Dab][Dab][dF]L[Dab][Dab]T; lactam 4-C),0.25,2,0.5,4,,,,,21.2,
CC(C)CCSSC[C@@H](N)C(=O)N[C@H](C(=O)N[C@@H](CCN)C(=O)N[C@H]1CCNC(=O)[C@H]([C@@H](C)O)NC(=O)[C@H](CCN)NC(=O)[C@H](CCN)NC(=O)[C@H](CC(C)C)NC(=O)[C@@H](Cc2ccccc2)NC(=O)[C@H](CCN)NC1=O)[C@@H](C)O [drawing 140] (H-[dC](S(3-Methylbutyl))T[Dab][Dab][Dab][dF]L[Dab][Dab]T; lactam 4-C),0.5,1,0.5,1,,,,,9.8,
Polymyxin B [reference compound],,,,,0.25,1,0.25,1,,1

# More lines, main results first:
MIC A. Baumanni (ATCC 19606) (A. Baumanni (ATCC 19606); ATCC 19606) [µg/mL],MIC E. Coli (ATCC 25922) (E. Coli (ATCC 25922); ATCC 25922) [µg/mL],MIC K. Pneumoniae (ATCC 13883) ([1]; ATCC 13883) [µg/mL],MIC P. Aeruginosa (ATCC 27853) ([2]; ATCC 27853) [µg/mL],MIC A. Baumanni (ATCC 19606) (A. Baumanni (ATCC 19606); strain ATCC 19606) [µg/mL],MIC E. Coli (ATCC 25922) (E. Coli (ATCC 25922); strain ATCC 25922) [µg/mL],MIC K. Pneumoniae (ATCC 13883) ([1]; strain ATCC 13883) [µg/mL],MIC P. Aeruginosa (ATCC 27853) ([2]; strain ATCC 27853) [µg/mL],Compound,PTEC Toxicity (relative to polymyxin B) [3],"PTEC Toxicity (relative to polymyxin B) ([3]; relative value, polymyxin B = 1)"
1,2,1,4,,,,,CC(C)C[C@@H]1NC(=O)[C@@H](Cc2ccccc2)NC(=O)[C@H](CCN)NC(=O)[C@@H](NC(=O)CNC(=O)[C@@H](NC(=O)[C@H](N)CSSCc2cccc(Cl)c2)[C@@H](C)O)CCNC(=O)[C@H]([C@@H](C)O)NC(=O)[C@H](CCN)NC(=O)[C@H](CCN)NC1=O (H-[dC](S(3-Cl-benzyl))TG[Dab][Dab][dF]L[Dab][Dab]T; lactam 4-C),7.4,
0.5,2,0.5,4,,,,,CC(C)C[C@@H]1NC(=O)[C@@H](Cc2ccccc2)NC(=O)[C@H](CCN)NC(=O)[C@@H](NC(=O)[C@H](CN)NC(=O)[C@@H](NC(=O)[C@H](N)CSSCc2cccc(Cl)c2)[C@@H](C)O)CCNC(=O)[C@H]([C@@H](C)O)NC(=O)[C@H](CCN)NC(=O)[C@H](CCN)NC1=O (H-[dC](S(3-Cl-benzyl))T[Dap][Dab][Dab][dF]L[Dab][Dab]T; lactam 4-C),4.8,
0.5,2,1,2,,,,,CC(C)C[C@@H]1NC(=O)[C@@H](Cc2ccccc2)NC(=O)[C@H](CCN)NC(=O)[C@@H](NC(=O)[C@@H](CCN)NC(=O)[C@@H](NC(=O)[C@H](N)CSSCc2cccc(Cl)c2)[C@@H](C)O)CCNC(=O)[C@H]([C@@H](C)O)NC(=O)[C@H](CCN)NC(=O)[C@H](CCN)NC1=O (H-[dC](S(3-Cl-benzyl))T[dDab][Dab][Dab][dF]L[Dab][Dab]T; lactam 4-C),7.0,
0.5,2,0.5,1,,,,,CC(C)C[C@@H]1NC(=O)[C@@H](Cc2ccccc2)NC(=O)[C@H](CCN)NC(=O)[C@@H](NC(=O)[C@@H](CN)NC(=O)[C@@H](NC(=O)[C@H](N)CSSCc2cccc(Cl)c2)[C@@H](C)O)CCNC(=O)[C@H]([C@@H](C)O)NC(=O)[C@H](CCN)NC(=O)[C@H](CCN)NC1=O (H-[dC](S(3-Cl-benzyl))T[dDap][Dab][Dab][dF]L[Dab][Dab]T; lactam 4-C),5.7,
0.5,2,0.5,4,,,,,CC(C)CCSSC[C@@H](N)C(=O)N[C@H](C(=O)NCC(=O)N[C@H]1CCNC(=O)[C@H]([C@@H](C)O)NC(=O)[C@H](CCN)NC(=O)[C@H](CCN)NC(=O)[C@H](CC(C)C)NC(=O)[C@@H](Cc2ccccc2)NC(=O)[C@H](CCN)NC1=O)[C@@H](C)O (H-[dC](S(3-Methylbutyl))TG[Dab][Dab][dF]L[Dab][Dab]T; lactam 4-C),26.8,
0.25,2,0.5,1,,,,,CC(C)CCSSC[C@@H](N)C(=O)N[C@H](C(=O)N[C@H](CN)C(=O)N[C@H]1CCNC(=O)[C@H]([C@@H](C)O)NC(=O)[C@H](CCN)NC(=O)[C@H](CCN)NC(=O)[C@H](CC(C)C)NC(=O)[C@@H](Cc2ccccc2)NC(=O)[C@H](CCN)NC1=O)[C@@H](C)O (H-[dC](S(3-Methylbutyl))T[dDap][Dab][Dab][dF]L[Dab][Dab]T; lactam 4-C),9.7,
1,1,0.5,1,,,,,CC(C)CCSSC[C@@H](N)C(=O)N[C@H](C(=O)N[C@@H](CCN)C(=O)N[C@H]1CCNC(=O)[C@H]([C@@H](C)O)NC(=O)[C@H](CCN)NC(=O)[C@H](CCN)NC(=O)[C@H](CC(C)C)NC(=O)[C@@H](Cc2ccccc2)NC(=O)[C@H](CCN)NC1=O)[C@@H](C)O [drawing 95] (H-[dC](S(3-Methylbutyl))T[Dab][Dab][Dab][dF]L[Dab][Dab]T; lactam 4-C),4.7,

# Source: US20250171498A1, “ANTIBIOTIC COMPOUNDS, FORMULATIONS AND METHODS OF USE” (UNIVERSITEIT LEIDEN, priority 2022, published 2025)
